Measured values: publication PMC6297782, “DNA-Mediated Interferon Signature Induction by SLE Serum Occurs in Monocytes Through Two Pathways: A Mechanism to Inhibit Both Pathways” (Frontiers in Immunology, 2018)

What was measured:
primary human monocytes = assay: DWEYS internalization into monocytes (ImageStream); assay type: cell-based; settings: 20 min
Experimental: Primary human monocytes were incubated for 20 min with biotin-tagged DWEYS peptide alone or with serum from SLE patients or healthy controls. Following incubation, cells were thoroughly washed and stained with anti-CD14 antibody (R&D Technologies, North Kingston, RI, USA) for 40 min at 4°C. Cells were then washed, fixed using 4% PFA and permeabilized using 1% Triton-X100, followed by incubation with labeled streptavidin for 40 min. Cell nuclei were counterstained with DAPI and cells were imaged using an ImageStream device (Amnis, Burlington, MA, USA).
Figure 3 DWEYS displaces DNA from immune complexes and inhibits DNA internalization into monocytes. (A) Primary human monocytes were incubated with labeled heat aggregated human lgG (hlgG, red) and either DWEYS or a blocking anti-FcRIIa antibody for 20 min. Cells were counterstained with DAPI and imaged using a laser scanning confocal microscope. (B) The graphs indicates adjusted fluorescence intensity for three experiments. (C) SLE serum was incubated with Syto 60 labeled dsDNA (5 μM), followed by DWEYS or control peptide (100 μM) for 30 min each. lgG was then isolated on protein G beads and Syto60 levels from protein G beads were quantified using LICOR scanner. OD was normalized to a standard labeled and filtered DNA. […] (D,E) Primary human monocytes were incubated with biotinylated DWEYS alone or biotinylated DWEYS and SLE serum from patients with or without anti ds DNA antibodies for 20 min. Cells were then stained for CD 14 as a membrane marker and intracellular DWEYS was tagged using fluorochrome labeled streptavidin. Intracellular DWEYS was quantified using lmageStream instrument: DWEYS fluorescence levels by flow cytometry (D) and representative ImageStream cell images (E). One representative experiment of three with similar results is shown. ^*p < 0.05; ns, not significant.

[1] = system: primary human monocytes / SLE serum-induced ISGs; assay: ISG induction by SLE serum in healthy donor monocytes (qPCR); assay type: cell-based; settings: 4 h, two DWEYS concentrations, control peptide at the higher dose, mean ± SD of three independent experiments
CpG:TLR9 binding = assay: Inhibition of CpG binding to TLR9, AlphaScreen; settings: constant CpG concentration
Experimental: Binding of TLR9 to biotinylated CpG or the DWEYS peptide was assayed in a buffer consisting of 50 mM Tris-HCl pH 7.4, 100 mM NaCl, 1% ultrapure BSA, 0.01% Tween 20 using an amplified luminescent proximity assay with streptavidin-conjugated donor beads and nickel chelate acceptor beads (AlphaScreen; Perkin Elmer, Boston, MA, USA), as described before ([1]).
Figure 2 DWEYS inhibits the transfer of the interferon signature by SLE serum but is not a TLR9 antagonist. (A) Primary human monocytes were incubated with SLE serum with or without DWEYS or with control peptide for 4 h. lSG expression was evaluated by qPCR. […] (B) Assessment of DWEYS and CpG oligonucleotides binding to TLR9. Labeled TLR9 was incubated with varying concentrations of CpG or DWEYS for 30 min in room temperature. Binding was assessed using an AlphaScreen assay as described in the methods section. (C,D) Inhibition assay. Labeled TLR9 and constant, binding concentration of CpG were incubated with different concentrations of DWEYS or a control peptide at neutral (pH 7.4, C) or acidic (pH 6.25, D) condition. Binding was assessed using an AlphaScreen assay as noted in the methods section. Results are representative of three independent experiments. ^***p < 0.001, ns, not significant.

[2] = system: human monocytes (CpG internalization); assay: FITC-CpG internalization by human monocytes, microscopy; assay type: cell-based; settings: 37°C, 15 min (legend 20 min)
Experimental: (§1) For HMGB1 or CpG internalization assays, isolated human monocytes were cultured in 8 well-chamber-slides (Nunc, LabTek, Thermo-Fisher) in X-VIVO 15 culture medium. Cells were allowed to adhere for 2 h and then washed with PBS and incubated with AlexaFluor-594 HMGB1 or FITC-CpG with or without DWEYS for 15 min. Nuclei were counterstained using DAPI. Cells were washed three times with cold PBS and then fixed with 4% PFA and mounted using Dako mounting solution (Agilnet Technologies, Santa Clara, CA, USA).
Non IC-bound DNA can also be internalized by binding to HMGB1, with the HMGB1-DNA complex binding to RAGE ([1]). […] We incubated monocytes from healthy donors with FITC labeled CpG. […] CpG is internalized chaperoned by HMGB1 binding through RAGE.
Figure 4 DWEYS binds HMGB1 and inhibits its binding to RAGE. (A) Monocytes were incubated with labeled CpG (red) and DWEYS or control peptide for 20 min. Cells were counterstained with DAPI prior to imaging. (B) Depicts adjusted fluorescence intensity for three experiments run. (C) Monocytes from C57BL6 wild type (WT) or RAGE^−/− mice were incubated with labeled CpG for 20 min and counterstained with DAPI prior to imaging. (D) Primary human monocytes were incubated with CpG and with or without DWEYS or a control peptide for 20 min. ISG expression was analyzed by qPCR. […]

[3] = system: CpG-induced ISGs, primary human monocytes; assay: ISG induction by CpG in monocytes (qPCR); assay type: cell-based; settings: CpG with or without peptide, 20 min per legend, three independent experiments
HMGB1 = HMGB1 binding, surface plasmon resonance; settings: SPR Biacore T200, HMGB1 immobilized on CM5 chip, 25°C
Experimental: A Biacore T200 apparatus (GE Healthcare Bio-Sciences, Pittsburgh, PA, USA) was used for real-time binding interaction studies. For HMGB1 and DWEYS peptide binding analyses, HMGB1 protein was immobilized onto a CM5 series chip (GE Healthcare). The HMGB1 protein was diluted to a concentration of 20 μg/mL in 10 mM sodium acetate buffer (pH = 4.5). A 1:1 mixture of N-hydroxysuccinimide and N-ethyl-N-(dimethyaminopropyl) carbodiimide was used to activate two flow-cells of the CM5 chip. […] The sample flow-cell was injected with the diluted HMGB1 at a flow rate of 10 μL/min. The HMGB1 injection was stopped when the surface plasmon resonance reached ~600 RU. For HMGB1 and DWEYS peptide kinetics assay, DWEYS peptide were sequentially injected at a flow rate of 20 μL/min for 120 s at 25°C, the dissociation time was set for 2 min. The concentrations were 16, 31.25, 62.5, 125, 250 μM. The equilibrium dissociation constant (KD) was obtained to evaluate the binding affinity by using the BIAEvaluation 2.0 software (GE Healthcare) assuming a 1:1 binding ratio. At least 3 independent experiments were performed.

[4] = system: human monocytes (HMGB1 internalization); assay: HMGB1 internalization by human monocytes, microscopy; assay type: cell-based; settings: AF-594-labeled HMGB1, human monocytes
Experimental: as §1
(B) Inhibition curve used for IC50 evaluation as noted in the methods section. (C,D) Human monocytes were incubated with labeled HMGB1 (red) alone (C, top panel) or HMGB1 and DWEYS (C, middle panel) or HMGB1 and control peptide (C, bottom panel) for 20 min. Cells were counterstained with DAPI and imaged using a confocal laser scanning microscope. (D) Indicates adjusted fluorescence intensity for three experiments. (E) Primary human monocytes were incubated with HMGB1 and with or without DWEYS or control peptide for 4 h. lSG expression was evaluated using qPCR.

[5] = system: HMGB1-induced ISGs, primary human monocytes; assay: ISG induction by HMGB1 in monocytes (qPCR); assay type: cell-based; settings: HMGB1 with DWEYS or control peptide, 4 h, three independent experiments
Experimental: Human cells were obtained with approval of the Institutional Review Board of the Feinstein Institute for Medical Research. PBMCs were isolated from blood of healthy donors (New York Blood Center) by density centrifugation. Monocytes were enriched by negative selection using a human monocyte enrichment kit ([…] Technologies). Purity of monocytes (CD11b^+, CD14^+, LAIR-1^+) was determined to be >90% by flow cytometry (FACS Calibur, BD Biosciences, San Jose, CA, USA). Purified monocytes (2 × 10^6 cells/ml) were cultured in U-bottom 96-well plates in X-VIVO 15 serum free medium (Lonza) with the indicated reagents and harvested at 4–6 h later, or at the indicated times. […] Murine monocyte purity was determined to be >90%.
Total RNA was extracted from cells (1–2 × 10^6 cells per sample) with an RNeasy kit (Qiagen, Germantown, MD, USA) and cDNA was generated using an iScript cDNA synthesis kit (Bio-Rad, Hercules, CA, USA). qRT-PCR was performed on a Light Cycler 480 II (Roche, Indianapolis, IN, USA). […] The relative induction was calculated by 2^−ΔΔCt.
(B) Inhibition curve used for IC50 evaluation as noted in the methods section. […] (D) Indicates adjusted fluorescence intensity for three experiments. (E) Primary human monocytes were incubated with HMGB1 and with or without DWEYS or control peptide for 4 h. lSG expression was evaluated using qPCR.

[6] = molecular target: T1, Recombinant HMGB1 (Calmodulin Binding Protein Epitope, Cbp tagged) (UniProt P09429 1-215); assay: SPR; Biacore T200; HMGB1 amine-coupled to a CM5 chip (~600 RU); peptide injected at 16-250 μM, 20 μL/min, 120 s, 25°C; 1:1 binding assumed; apparent KD; settings: both partners purified
T1 construct: high-mobility group box-1 protein (HMGB1), recombinant; The reagents also list 'reduced HMGB1'; also called high-mobility group box-1
T1 sequence (looked up): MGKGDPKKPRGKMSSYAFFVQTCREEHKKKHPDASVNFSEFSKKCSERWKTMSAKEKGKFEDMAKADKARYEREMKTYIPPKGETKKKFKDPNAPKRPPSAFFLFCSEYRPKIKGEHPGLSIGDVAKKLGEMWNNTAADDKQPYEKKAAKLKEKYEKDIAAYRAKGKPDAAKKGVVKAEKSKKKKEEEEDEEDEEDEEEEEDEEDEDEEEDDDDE

[7] = molecular target: T1, Recombinant HMGB1 (Calmodulin Binding …); assay: SPR; inhibition assay, Biacore T200; sRAGE amine-coupled to a CM5 chip (~500 RU); HMGB1 (0.5 μM) with or without DWEYS 50 to 1.6 μM injected at 30 μL/min for 60 s, 25°C; PBS + 0.05 Tween 20; settings: both partners purified

**Q.** Which results are given for biotinylated DWEYS [labeled DWEYS]?
**A.** internalization of DWEYS, no serum (primary human monocytes; biotinylated DWEYS alone): only minimal internalization; internalization of DWEYS, SLE serum with high anti-DNA titer (primary human monocytes; biotinylated DWEYS with SLE serum with high anti-DNA antibody titer): significant intracellular internalization of DWEYS was seen; internalization of DWEYS, SLE serum lacking anti-DNA antibodies (primary human monocytes; biotinylated DWEYS with SLE serum with low titers of anti-DNA antibodies): did not mediate DWEYS internalization; internalization of DWEYS, healthy donor serum (primary human monocytes; biotinylated DWEYS with serum from healthy donors): only minimal internalization

**Q.** Which “ISG induction by SLE serum (effect of peptide)” value [1] does the source give for TATAT [control peptide] here?
**A.** The value was “showed an induction of all three ISGs studied”.

**Q.** What about the “inhibition of CpG binding to TLR9, acidic pH” value (CpG:TLR9 binding; pH 6.25 (simulating activated endosome)) of the same molecule?
**A.** The value was “neither DWEYS, nor a control peptide, used at various concentrations, inhibited the binding”.

**Q.** What about the “inhibition of CpG binding to TLR9, neutral pH” value (CpG:TLR9 binding; pH 7.4) of the same molecule?
**A.** Its value is “neither DWEYS, nor a control peptide, used at various concentrations, inhibited the binding”.

**Q.** What about the “CpG internalization (effect of peptide)” value [2] of the same molecule?
**A.** The value was “no effect”.

**Q.** What about the “CpG induction of ISGs (effect of peptide)” value [3] of the same molecule?
**A.** The value was “failed to inhibit ISG induction”.

**Q.** And the “binding to immobilized HMGB1” value (HMGB1)?
**A.** The value was “did not bind”.

**Q.** What about the “HMGB1 internalization (effect of peptide)” value ([4]; 20 min, confocal microscopy) of the same molecule?
**A.** Its value is “no inhibition of HMGB1 internalization”.

**Q.** What about the “ISG level on HMGB1 incubation” value [5] of the same molecule?
**A.** The value was “increased level of ISGs, in the presence of control peptide”.

B1: high-mobility group box-1 (protein)
chain: T1 sequence (looked up)
modifications: left off: Calmodulin Binding Protein Epitope (Cbp), end not stated, state not stated
**Q.** With B1 as the molecule, how does the HMGB1 internalization alone [4] read?
**A.** Its HMGB1 internalization alone is “detected in monocytes after 15–30 min in incubation”.

B2: DWEYS peptide (peptide)
peptide: DWEYS
notes: the biotinylated form may have been used there; also called pentapeptide DWEYS; DNA mimetope; source: synthetic peptide (GenScript)
**Q.** How did the Kd [6] turn out when B2 was run?
**A.** Its Kd is 185 µM.

**Q.** What about the IC50 [7] of the same molecule?
**A.** Its IC50 is 34.7 µM.
